Measurements as given in patent publication US11385234B2, “Methods and systems for detecting an analyte or classifying a sample” (Commonwealth Scientific and Industrial Research Organisation, priority 2012, dated 2022).

Columns and labels:
[1] = system: SGSR-113 (BRET^2 tagged str-113); experiment: BRET^2 response of SGSR-113 to volatile ligands, plate based; type: biochemical, C. elegans
Excerpt: (§1) SGSRs are chimaeras of C. elegans str-112, str-113, str-114, str-115, str-116 and str-114/113 with the BRET^2 tags GFP^2 and RLuc or RLuc2 inserted in the third intracellular loop and at the C-terminus, respectively. The positions of the third intracellular loops of STR proteins were predicted using “TMAP” an algorithm from “The Biology Workbench” (a web-based tool for prediction of transmembrane segments http.//seqtool.sdsc.edu). These were named SGSR-112, SGSR-113, SGSR-114/113, SGSR-114, SGSR-115 and SGSR-116.
(§2) Except for SGSR-112, which was commercially synthesised, SGSR expression cassettes were designed and made by introducing multiple restriction sites into the relevant gene-specific PCR primers. PCR products containing those sites were cloned into TOPO PCR vectors (Invitrogen) and then digested with the corresponding restriction enzymes (REs) and ligated into the expression cassettes.
(§3) The inventors selected a number of specific volatiles (including 1-hexanol, 1 butanol, butane-2,3-dione, 3-hydroxybutanone, 2-pentanone and 2 nonanone) for further testing based on GC-MS analysis of the headspace of OP50 bacteria grown on LB. […] This is the first time that a volatile ligand (or indeed any ligand) has been identified for a BRET-based GPCR sensor, in the absence of prior knowledge of the ligand based on research with the unmodified parental GPCR.

[2] = biological target: SGSR-112 (BRET^2 tagged str-112) (Caenorhabditis elegans, UniProt O16913); experiment: BRET^2 response of SGSR-112 to volatile ligands, plate based; type: biochemical, C. elegans
Excerpt: as §1, §2, §3

[3] = system: SGSR-114/113 (BRET^2 tagged str-114/113 chimera); experiment: BRET^2 response of SGSR-114/113 to volatile ligands, plate based; type: biochemical, C. elegans
Excerpt: as §1, §2
The SGSR 114/113 chimera was constructed by modifying C. elegans SGSR-113 (by replacing the first fragment of str-13, 113-1 using the restriction sites NcoI and BspEI in the cassette with the corresponding fragment of str-114, str-114-1). Str114-1 contains the first 720 str-114 nucleotides of, corresponding to its first 240 amino acids and was amplified by high fidelity PCR using primers incorporating the restriction sites, NcoI at the 5′ end and BspEI at the 3′ end.
as §3

GFP^2—MBP—RLuc2 = GFP^2—MBP—RLuc2 (Escherichia coli, UniProt P0AEX9); experiment: BRET^2 tagged MBP sugar assay, plate reader; type: binding; details: 0.1 mM sugar, 30 minutes at 28° C., 1 μM protein
Experimental: 1 μM purified protein was used for all the energy transfer assays (final volume of 100 μL). […] Purified protein was incubated with the sugar dissolved in double deionised water or water for 30 minutes at 28° C.
BRET ratios were calculated as the ratio of maximum acceptor emission intensity to maximum donor emission intensity.
All data analysis was carried out using GraphPad Prism (version 5 for Windows, Graphpad Software, San Diego, Calif., USA). All data will be reported as means± standard deviation (SD) unless otherwise stated in the text. Two-tailed unpaired t-tests will be performed using Graphpad prism. Statistical significance is defined as p<0.05.

thrombin = biological target: T1, thrombin (Bos taurus, UniProt P00735); experiment: Hirudin pre-incubation in thrombin cleavage assay of GFP^2-RG-RLuc (BRET^H ratio, SDS-PAGE); type: biochemical
T1 construct: purchased Amersham Biosciences
Experimental: Various concentrations of thrombin were added to purified GFP^2-RG-RLuc biosensor and incubated at 30° C. for 90 minutes. To measure the extent of thrombin cleavage the sample mixture following incubation and the native CLZ solution were pumped from separate syringes into the two inlet channels and allowed to flow through the main channel. Diffusion between the two streams induced a BRET reaction at the interface. Recombinant hirudin from yeast (Sigma) was incubated with thrombin at room temperature for ten minutes prior to the protease assay.
To confirm complete thrombin cleavage of the GFP^2-RG-RLuc biosensor, SDS-PAGE analysis was carried out. Proteins (2.5 μg) were diluted in 1× sample loading buffer (Invitrogen) for SDS-gel electrophoresis in a 12% Bis-Tris gel with MOPS running buffer (NuPAGE, Invitrogen). Bands were stained with Fast Stain™ (Fisher) and then visualised.
Using the microplate spectrometer, hybrid BRET ratios were calculated as the ratio of bioluminescence emissions measured at 500 nm and 470 nm. Using the microchip system, the hybrid BRET ratio was calculated as ratio of the long wavelength emission (515 nm-555 nm) to the short wavelength emission (430 nm-455 nm) (Pfleger and Eidne, 2006). To allow comparison between the two different detection systems, the Hybrid BRET ratios were normalized by expressing them as a multiple of the BRET ratio without added thrombin, in the same measurement system. All data are reported as means±standard deviation (SD). Two-tailed unpaired t-tests were performed using Graphpad prism (version 5.00 for Windows, Graphpad Software, San Diego, Calif., USA). Statistical significance is defined as p<0.05.

Chain of SGSR-112 (BRET^2 tagged str-112) (O16913 entry or part of it): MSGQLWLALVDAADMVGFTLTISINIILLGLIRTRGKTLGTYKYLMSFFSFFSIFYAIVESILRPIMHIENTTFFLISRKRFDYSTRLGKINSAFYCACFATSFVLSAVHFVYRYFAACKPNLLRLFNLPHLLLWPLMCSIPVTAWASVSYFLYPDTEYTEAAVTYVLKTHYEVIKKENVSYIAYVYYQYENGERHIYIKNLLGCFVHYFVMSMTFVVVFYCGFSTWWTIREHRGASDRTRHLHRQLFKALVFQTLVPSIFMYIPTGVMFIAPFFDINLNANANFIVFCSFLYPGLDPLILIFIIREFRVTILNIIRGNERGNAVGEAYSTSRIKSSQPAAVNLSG

In the case of CCCCCCO [1-hexanol], the detectable level ([1]; in vitro) is reported as “parts per billion (nM) levels”.
With CCCC(C)=O [2-pentanone] the EC50 [2] was 0.15 nM, the “BRET^2 response to volatile ligand” value ([2]; 1 μM of odorant) was “tested positive” and the “BRET^2 response to volatile ligand” value ([3]; 1 μM of odorant) was “tested positive”. The detectable level ([3]; in vitro) was “parts per billion levels (nM) levels” and the “BRET^2 response to volatile ligand” value ([1]; 1 μM of odorant) was “tested positive”.
For O=C(CO)[C@@H](O)[C@H](O)[C@H](O)CO [fructose], the “response of BRET biosensor to sugar” value (GFP^2—MBP—RLuc2) was “did not respond”.
With OC[C@H]1O[C@H](OC[C@H]2O[C@H](O[C@]3(CO)O[C@H](CO)[C@@H](O)[C@@H]3O)[C@H](O)[C@@H](O)[C@@H]2O)[C@H](O)[C@@H](O)[C@H]1O [raffinose] the “response of BRET biosensor to sugar” value (GFP^2—MBP—RLuc2) was “did not respond”.
hirudin was tested, and the “BRET^H ratio with pre-addition of hirudin” value (thrombin; 54 nM thrombin pre-treated with 2 units hirudin, 10 minutes, room temperature) was 1.08±0.14, the “effect of hirudin on thrombin induced reduction in BRET^H ratio” value (thrombin; 2 units hirudin, 10 minutes, room temperature) was “prevented the thrombin induced reduction” and the “effect of hirudin on cleavage of fusion protein, SDS-PAGE” value (thrombin; 2 units hirudin, SDS-PAGE lane 6) was “inhibited the formation of the two components”.
In the case of maltotriose, the “amplitude of the change in BRET ratio” value (GFP^2—MBP—RLuc2) is reported as 17.03%.
